Where a name gives a salt, the structure may show the parent alone. Read-outs that look alike come from different tables or passages of the source.
Assays:
Type in all cases: biochemical
[1] = target: T1, human JAK3 (a.a. 781-1124) (Homo sapiens, UniProt P52333); experiment: In vitro JAK kinase assay (HTRF, phosphorylation of a biotinylated peptide), JAK3
T1 construct: JAK3 (a.a. 781-1124); His tag (N); made in house; host or cells: insect cells (baculovirus)
Summary of the method: (§1)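 Kinase reactions ran at room temperature for 1 h with ATP matched per isoform (JAK1 90 μM, JAK2 30 μM, JAK3 3 μM). After an EDTA stop, the phosphorylated biotin-peptide was read by HTRF using Eu-Py20 and SA-APC after 40 min binding.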

[2] = target: T2, human JAK1 (a.a. 837-1142) (Homo sapiens, UniProt P23458); experiment: In vitro JAK kinase assay (HTRF, phosphorylation of a biotinylated peptide), JAK1; settings: read-out: JAK1 IC50
T2 construct: human JAK1 (a.a. 837-1142); His tag (N); made in house; host or cells: insect cells (baculovirus)
T2 sequence (P23458 849-1154): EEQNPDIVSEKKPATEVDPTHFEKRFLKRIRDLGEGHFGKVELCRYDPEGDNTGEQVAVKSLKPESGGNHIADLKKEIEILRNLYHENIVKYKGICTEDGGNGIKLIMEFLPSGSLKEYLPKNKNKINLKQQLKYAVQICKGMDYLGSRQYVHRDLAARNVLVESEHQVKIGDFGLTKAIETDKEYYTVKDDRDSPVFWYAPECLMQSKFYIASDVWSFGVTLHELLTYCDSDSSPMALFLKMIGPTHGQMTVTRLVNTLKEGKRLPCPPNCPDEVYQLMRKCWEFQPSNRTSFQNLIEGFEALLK
Summary of the method: as §1

TYK2 = TYK2 (Homo sapiens, UniProt P29597); experiment: TYK2 kinase inhibition (Table A1)
Sequence of TYK2 (P29597 whole entry): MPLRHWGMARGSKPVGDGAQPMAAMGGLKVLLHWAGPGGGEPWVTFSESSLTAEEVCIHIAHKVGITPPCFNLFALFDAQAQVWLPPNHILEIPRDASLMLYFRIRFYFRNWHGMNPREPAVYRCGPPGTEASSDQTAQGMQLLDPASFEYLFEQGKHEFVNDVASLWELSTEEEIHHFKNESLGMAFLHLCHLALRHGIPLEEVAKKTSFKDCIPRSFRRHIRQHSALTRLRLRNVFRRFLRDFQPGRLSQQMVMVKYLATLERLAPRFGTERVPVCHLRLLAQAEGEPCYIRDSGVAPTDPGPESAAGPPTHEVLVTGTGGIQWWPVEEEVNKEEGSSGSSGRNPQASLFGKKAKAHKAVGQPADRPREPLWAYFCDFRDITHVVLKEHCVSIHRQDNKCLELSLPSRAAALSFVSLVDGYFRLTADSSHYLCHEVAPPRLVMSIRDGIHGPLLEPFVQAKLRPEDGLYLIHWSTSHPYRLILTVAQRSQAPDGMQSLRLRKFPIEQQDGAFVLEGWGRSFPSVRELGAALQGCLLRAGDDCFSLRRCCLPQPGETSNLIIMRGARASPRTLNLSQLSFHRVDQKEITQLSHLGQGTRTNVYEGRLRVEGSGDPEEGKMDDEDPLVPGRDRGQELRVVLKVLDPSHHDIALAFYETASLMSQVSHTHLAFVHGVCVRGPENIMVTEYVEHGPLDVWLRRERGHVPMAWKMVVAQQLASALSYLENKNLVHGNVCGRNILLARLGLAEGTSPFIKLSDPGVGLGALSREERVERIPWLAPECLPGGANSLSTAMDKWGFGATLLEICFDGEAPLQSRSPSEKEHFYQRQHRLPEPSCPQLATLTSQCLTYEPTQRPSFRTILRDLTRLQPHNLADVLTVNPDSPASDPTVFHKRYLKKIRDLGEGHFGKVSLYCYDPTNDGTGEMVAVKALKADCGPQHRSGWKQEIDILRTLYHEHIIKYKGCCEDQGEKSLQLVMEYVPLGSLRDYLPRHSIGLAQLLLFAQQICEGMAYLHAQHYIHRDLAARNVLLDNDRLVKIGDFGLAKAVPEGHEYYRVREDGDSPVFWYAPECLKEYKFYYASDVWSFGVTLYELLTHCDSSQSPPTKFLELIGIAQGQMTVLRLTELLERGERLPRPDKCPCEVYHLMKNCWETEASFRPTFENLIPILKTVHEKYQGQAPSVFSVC

[3] = target: T3, human JAK2 (a.a. 828-1132) (Homo sapiens, UniProt O60674); experiment: In vitro JAK kinase assay (HTRF, phosphorylation of a biotinylated peptide), JAK2
T3 construct: JAK2 (a.a. 828-1132); His tag (N); made in house; host or cells: insect cells (baculovirus)
T3 sequence (O60674 828-1132): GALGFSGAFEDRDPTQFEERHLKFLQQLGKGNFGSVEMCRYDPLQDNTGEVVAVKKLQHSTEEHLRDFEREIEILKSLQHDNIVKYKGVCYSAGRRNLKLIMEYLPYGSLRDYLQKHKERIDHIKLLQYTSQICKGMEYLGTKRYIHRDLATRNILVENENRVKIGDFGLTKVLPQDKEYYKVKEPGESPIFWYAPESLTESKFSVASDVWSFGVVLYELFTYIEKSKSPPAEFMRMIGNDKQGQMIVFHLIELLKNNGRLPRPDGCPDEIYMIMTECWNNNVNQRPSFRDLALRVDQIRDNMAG
Summary of the method: as §1

T1 sequence (P52333 781-1124): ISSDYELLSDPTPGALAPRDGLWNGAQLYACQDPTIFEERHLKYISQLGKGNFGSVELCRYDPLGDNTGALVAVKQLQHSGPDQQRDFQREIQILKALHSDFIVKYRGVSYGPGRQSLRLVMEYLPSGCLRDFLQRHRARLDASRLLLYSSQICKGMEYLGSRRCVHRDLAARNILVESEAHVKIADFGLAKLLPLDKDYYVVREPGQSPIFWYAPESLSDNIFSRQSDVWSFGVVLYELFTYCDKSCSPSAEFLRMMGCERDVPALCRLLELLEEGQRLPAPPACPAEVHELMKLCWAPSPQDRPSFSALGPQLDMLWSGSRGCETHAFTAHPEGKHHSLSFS

Compound	IC50 ([1]; Table D1) [nM]	IC50 ([2]; Table D1) [nM]	IC50 (TYK2; Table D1) [nM]	IC50 ([3]; Table D1) [nM]	IC50 [1] [nM]	IC50 [2] [nM]	IC50 (TYK2) [nM]	IC50 [3] [nM]	IC50 ([1]; method AA1 (3 μM ATP) or AA2 (1000 μM ATP), not stated per value) [nM]	IC50 ([2]; method AA1 (90 μM ATP) or AA2 (1000 μM ATP), not stated per value) [nM]	IC50 ([3]; method AA1 (30 μM ATP) or AA2 (1000 μM ATP), not stated per value) [nM]
O=C(COc1ccc2cc1CCc1cncc(c1)Nc1ncc(Cl)c(n1)N2)N1CCN(c2ccccn2)CC1 [Example D231, 6-Chloro-12-[2-oxo-2-(4-pyridin-2-ylpiperazin-1-yl)ethoxy]-2,4,8,18,22-pentaazatetracyclo[14.3.1.1(3,7).1(9,13)]docosa-1(20),3(22),4,6,9(21),10,12,16,18-nonaene tris(trifluoroacetate)]	> 400	52	> 400	217							
O=C(c1ccc(C(F)(F)F)cc1)N1CCN(c2ccc3cc2CCc2cccc(c2)Nc2ncc(Cl)c(n2)N3)CC1 [Example D96, 6-Chloro-12-{4-[4-(trifluoromethyl)benzoyl]piperazin-1-yl}-2,4,8,22-tetraazatetracyclo[14.3.1.1(3,7).1(9,13)]docosa-1(20),3(22),4,6,9(21),10,12,16,18-nonaene bis(trifluoroacetate)]	149	112	195	49							
O=C(NCc1ccco1)N1CCC(CCOc2ccc3cc2CCc2cncc(c2)Nc2ncc(Cl)c(n2)N3)CC1 [Example D165, 4-(2-{[6-Chloro-2,4,8,18,22-pentaazatetracyclo[14.3.1.1(3,7).1(9,13)]docosa-1(20),3(22),4,6,9(21),10,12,16,18-nonaen-12-yl]oxy}ethyl)-N-(2-furylmethyl)piperidine-1-carboxamide bis(trifluoroacetate)]	> 400	52	> 400	208							
Cc1noc(C)c1NC(=O)N1CCC(CCOc2ccc3cc2CCc2cncc(c2)Nc2ncc(Cl)c(n2)N3)CC1 [Example D171, 4-(2-{[6-Chloro-2,4,8,18,22-pentaazatetracyclo[14.3.1.1(3,7).1(9,13)]docosa-1(20),3(22),4,6,9(21),10,12,16,18-nonaen-12-yl]oxy}ethyl)-N-(3,5-dimethylisoxazol-4-yl)piperidine-1-carboxamide bis(trifluoroacetate)]	> 400	117	> 400	244							
COc1cccnc1N1CCN(C(=O)COc2ccc3cc2CCc2cncc(c2)Nc2ncc(Cl)c(n2)N3)CC1 [Example D249, 6-Chloro-12-{2-[4-(3-methoxypyridin-2-yl)piperazin-1-yl]-2-oxoethoxy}-2,4,8,18,22-pentaazatetracyclo[14.3.1.1(3,7).1(9,13)]docosa-1(20),3(22),4,6,9(21),10,12,16,18-nonaene tris(trifluoroacetate)]	> 400	71	> 400	> 400							
NC(=O)N1CCN(c2ccc3cc2CCc2cccc(c2)Nc2ncc(Cl)c(n2)N3)CC1 [Example D87, 4-[6-Chloro-2,4,8,22-tetraazatetracyclo[14.3.1.1(3,7).1(9,13)]docosa-1(20),3(22),4,6,9(21),10,12,16,18-nonaen-12-yl]piperazine-1-carboxamide bis(trifluoroacetate)]	34	18	30	3.3							
O=C(CC1CN(C(=O)c2c[nH]nn2)C1)Nc1ccc2cc1CCc1cncc(c1)Nc1ncc(Cl)c(n1)N2 [Example D148, N-[6-Chloro-2,4,8,18,22-pentaazatetracyclo[14.3.1.1(3,7).1(9,13)]docosa-1(20),3(22),4,6,9(21),10,12,16,18-nonaen-12-yl]-2-[1-(1H-1,2,3-triazol-4-ylcarbonyl)azetidin-3-yl]acetamide bis(trifluoroacetate)]	> 1000	15	414	34							
O=C(C[C@H]1CCCN(C(=O)Nc2ccccc2)C1)Nc1ccc2cc1CCc1cncc(c1)Nc1ncc(Cl)c(n1)N2 [Example D199, (3R)-3-(2-{[6-Chloro-2,4,8,18,22-pentaazatetracyclo[14.3.1.1(3,7).1(9,13)]docosa-1(20),3(22),4,6,9(21),10,12,16,18-nonaen-12-yl]amino}-2-oxoethyl)-N-phenylpiperidine-1-carboxamide bis(trifluoroacetate)]	65	5.7	21	8							
Cc1nc(CC(=O)Nc2ccc3cc2CCc2cccc(c2)Nc2ncc(Cl)c(n2)N3)c(C)s1 [Example C46, N-[6-Chloro-2,4,8,22-tetraazatetracyclo[14.3.1.1(3,7).1(9,13)]docosa-1(20),3(22),4,6,9(21),10,12,16,18-nonaen-12-yl]-2-(2,5-dimethyl-1,3-thiazol-4-yl)acetamide trifluoroacetate]					1490	79	165	170			
COC(=O)c1ccc2cc1CCc1cncc(c1)Nc1ncc(Cl)c(n1)N2 [Example C28, Methyl 6-chloro-2,4,8,18,22-pentaazatetracyclo[14.3.1.1(3,7).1(9,13)]docosa-1(20),3(22),4,6,9(21),10,12,16,18-nonaene-12-carboxylate]					> 200	120	> 200	100			
Cc1ccc(N2CCN(C(=O)COc3ccc4cc3CCc3cncc(c3)Nc3ncc(Cl)c(n3)N4)CC2)nc1 [Example D246, 6-Chloro-12-{2-[4-(5-methylpyridin-2-yl)piperazin-1-yl]-2-oxoethoxy}-2,4,8,18,22-pentaazatetracyclo[14.3.1.1(3,7).1(9,13)]docosa-1(20),3(22),4,6,9(21),10,12,16,18-nonaene tris(trifluoroacetate)]	> 400	30	> 400	226							
O=C(C[C@H]1CCCN(C(=O)Nc2ccccc2)C1)Nc1ccc2cc1CCc1cccc(c1)Nc1ncc(Cl)c(n1)N2 [Example D197, (3R)-3-(2-{[6-Chloro-2,4,8,22-tetraazatetracyclo[14.3.1.1(3,7).1(9,13)]docosa-1(20),3(22),4,6,9(21),10,12,16,18-nonaen-12-yl]amino}-2-oxoethyl)-N-phenylpiperidine-1-carboxamide trifluoroacetate]	44	16	34	9							
O=C(Cc1ccccc1)N1CCC(Nc2ccc3cc2CCc2cncc(c2)Nc2ncc(Cl)c(n2)N3)CC1 [Example D159, 6-Chloro-N-[1-(phenylacetyl)piperidin-4-yl]-2,4,8,18,22-pentaazatetracyclo[14.3.1.1(3,7).1(9,13)]docosa-1(20),3(22),4,6,9(21),10,12,16,18-nonaen-12-amine tris(trifluoroacetate)]	> 400	313	> 400	> 400							
O=C(C[C@@H]1CCCN(C(=O)c2ccccc2)C1)Nc1ccc2cc1CCc1cncc(c1)Nc1ncc(Cl)c(n1)N2 [Example D206, 2-[(3S)-1-Benzoylpiperidin-3-yl]-N-[6-chloro-2,4,8,18,22-pentaazatetracyclo[14.3.1.1(3,7).1(9,13)]docosa-1(20),3(22),4,6,9(21),10,12,16,18-nonaen-12-yl]acetamide bis(trifluoroacetate)]	147	9.2	13	14							
N#Cc1ccc(NC(=O)N2CCC(C(=O)Nc3ccc4cc3CCc3cccc(c3)Nc3ncc(Cl)c(n3)N4)CC2)cc1 [Example A37, N(4)-[6-Chloro-2,4,8,22-tetraazatetracyclo[14.3.1.1(3,7).1(9,13)]docosa-1(20),3(22),4,6,9(21),10,12,16,18-nonaen-12-yl]-N(1)-(4-cyanophenyl)piperidine-1,4-dicarboxamide trifluoroacetate]							21		24	9	11
O=C(Cc1ccsc1)Nc1ccc2cc1CCc1cccc(c1)Nc1ncc(Cl)c(n1)N2 [Example C32, N-[6-Chloro-2,4,8,22-tetraazatetracyclo[14.3.1.1(3,7).1(9,13)]docosa-1(20),3(22),4,6,9(21),10,12,16,18-nonaen-12-yl]-2-(3-thienyl)acetamide trifluoroacetate]					658	34	44	20			
N#Cc1ccc(N2CCN(C(=O)COc3ccc4cc3CCc3cncc(c3)Nc3ncc(Cl)c(n3)N4)CC2)cc1 [Example D236, 4-[4-({[6-Chloro-2,4,8,18,22-pentaazatetracyclo[14.3.1.1(3,7).1(9,13)]docosa-1(20),3(22),4,6,9(21),10,12,16,18-nonaen-12-yl]oxy}acetyl)piperazin-1-yl]benzonitrile tris(trifluoroacetate)]	> 400	90	> 400	288							
CC(=O)N1CCC[C@@H](CC(=O)Nc2ccc3cc2CCc2cccc(c2)Nc2ncc(Cl)c(n2)N3)C1 [Example D200, 2-[(3S)-1-Acetylpiperidin-3-yl]-N-[6-chloro-2,4,8,22-tetraazatetracyclo[14.3.1.1(3,7).1(9,13)]docosa-1(20),3(22),4,6,9(21),10,12,16,18-nonaen-12-yl]acetamide trifluoroacetate]	34	8.1	12	9.3							
